In patent US11707070B2, “Inhibition of fungal growth by manganese depletion” (Chr. Hansen A/S, priority 2018, dated 2023):
Read-outs that look alike come from different tables or passages of the source.

Experiments:
[1] = tested on: Cryptococcus fragicola; assay: Yeast agar-assay on fermented milk plates (Example 6); type: cell-based; settings: added manganese on fermented milk agar plates
Procedure: Influence of manganese on the inhibitory effect against different molds were evaluated. An agar-assay resembling the manufacturing process and production of fermented milk products was used. L. rhamnosus and L. paracasei were used together as manganese scavenging agents. Reduced-fat (1.5% w/v) homogenized milk was heat-treated at 90±1° C. for 20 min and cooled immediately. A commercial starter culture (Streptococcus thermophilus and Lactobacillus delbrueckii subsp. bulgaricus) was inoculated at 0.02% (v/w) in 3 L buckets. […] The fermented milk products were divided into 200 mL bottles and cooled down. […] All the fermented milk samples were warmed to a temperature of 40° C. and added 40 ml of a 5% sterile agar solution that had been melted and cooled down to 60° C. This solution of fermented milk and agar was then poured into sterile Petri dishes and the plates were dried in a LAF bench for 30 min. Three target contaminants, including two Debaryomyces hansenii (strain 1 and strain 2) and one Cryptococcus fragicola were spotted in concentrations of 10^3, 10^2 and 10^1 CFU/spot. Plates were incubated at 7±1° C. and regularly examined for the growth of yeast.

[2] = tested on: Debaromyces hansenii
Procedure: Absorbance at 600 nm was measured after 7 days of incubation at 17° C., compared to reference. Samples made in triplicate.
Two concentrations of manganese were used, 6 ppm and 0.6 ppm, in example 8.

[3] = tested on: Debaryomyces hansenii; settings: chemically defined medium, pH 6.5 or 4.5; 6 days at 17° C.; FIGS. 1 and 2
Procedure: Two D. hansenii isolated from spoiled yogurt (strain 1) and quark (strain 2), respectively, were used.
The minimal medium contains biotin 2 μg/L, calcium pantothenate 400 μg/L, folic acid 2 μg/L, inositol 2 mg/L, nicotinic acid 400 μg/L, p-amino benzoic acid 200 μg/L, pyridoxine 400 μg/L, riboflavin 200 μg/L, thiamine 400 μg/L, Boric acid 500 μg/L, copper sulfate 40 μg/L, potassium iodide 100 μg/L, ferric chloride 200 μg/L, sodium molybdate 200 μg/L, zinc sulfate 400 μg/L, potassium phosphate monobasic 0.5 g/L, potassium phosphate dibasic 0.5 g/L, magnesium sulfate 0.5 g/L, sodium chloride 0.1 g/L, calcium chloride 0.2 g/L, glucose 20 g/L, ammonium sulfate 5 g/L.
Two different pH were tested: pH 6.5 and 4.5.
The strains were inoculated to 150 μl of the different medium in a 96 well plate. The plates were incubated at 17° C. for several days and the growth of the yeast strains was followed by measuring absorbance at 600 nm in a plate reader.

[4] = tested on: Debaryomyces hansenii; assay: Yeast growth in yogurt with EDTA or scavenger (Example 9); type: cell-based; settings: added to reference yogurt; FIG. 14
Procedure: The concentration of EDTA ranges from 14 mg/ml (top row), 7.10 mg/ml, 3.55 mg/ml, 1.78 mg/ml, 0.89 mg/ml, 0.44 mg/ml, 0.22 mg/ml to 0 mg/ml (bottom row).

SMILES: [Mn+2] [manganese]
- Manganese concentration that seemed to inhibit the growth [1]: 6 ppm
- manganese concentration with inhibitory/toxic effect on yeast growth ([2]; Example 8): 6 ppm
- manganese concentration below which growth is inhibited [3]: < 0.01 ppm

SMILES: O=C(O)CN(CCN(CC(=O)O)CC(=O)O)CC(=O)O [EDTA, ethylenediaminetetraacetic acid]
- concentration at which cells stop growing (inhibitory effect) ([2]; FIG. 12, aqueous phase filtered with 1.2 μm filter, 7 days at 17° C.): 0.05 mg/mL
- effect on growth of adding 0.6 ppm of manganese together with 0.05 mg/ml EDTA ([2]; FIG. 13, 0.05 mg/ml EDTA + 0.6 ppm manganese): restores the growth
- concentration at which cells stop growing (inhibitory effect) ([2]; FIG. 13, aqueous phase filtered with 0.2 μm filter, absence of manganese (0.6 ppm)): 0.05 mg/mL
- concentration reproducing the inhibition of manganese scavenging agent 1 [4]: up to 0.89 mg/ml
